Experimental data published in patent US6432983B1, “Benzothiophene compounds intermediates processes and methods of use” (Eli Lilly and Company, priority 1996, dated 2002).
Marks after values point to notes of the source that are not given here.

Test system: ovariectomized rats
Assay: ovariectomized rat model of postmenopausal hyperlipidemia (uterine weight, uterine eosinophil peroxidase, serum cholesterol)
Format: in vivo
Design: Uterine Eosinophil (Vmax): unit not given here
Conditions: for Serum Cholest. % Dec: decrease versus ovariectomized controls
Source text: Experimental models of postmenopausal hyperlipidemia are known in the art. Germane to this invention is the ovariectomized rat model which is detailed in U.S. Pat. No. 5,464,845.
Data presented in Table 1 show comparative results among ovariectomized rats, rats treated with 17-α-ethynyl estradiol(EE2), and rats treated with certain compounds of this invention. […] This uterine response to estrogen is well recognized in the art.
Not only did the compounds of the present invention reduce serum cholesterol compared to the ovariectomized animals, but the uterine weight was increased to lesser extent than those given EE2. Compared to estrogenic compounds known in the art, the benefit of serum cholesterol reduction while lessening the effect on uterine weight is unusual and desirable.
As expressed in the data below, estrogenicity also was assessed by evaluating the response of eosinophil infiltration into the uterus.
The data presented in Table 1 reflect the response per treatment group.

[1] = ovariectomized rats, dose 1.0 mg/kg
[2] = ovariectomized rats, dose 10.0 mg/kg

SMILES | Uterine Weight % Inc (ovariectomized rats, dose 0.1 mg/kg, % increase versus the ovariectomized controls) | Uterine Eosinophil (Vmax) (ovariectomized rats, dose 0.1 mg/kg, Eosinophil peroxidase, Vmaximum) | Uterine Eosinophil (Vmax) (rat, in vivo, 1 mg/kg) | Uterine Weight % Inc (rat, in vivo, 1 mg/kg) | Uterine Eosinophil (Vmax) (rat, in vivo, 10 mg/kg) | Uterine Weight % Inc (rat, in vivo, 10 mg/kg) | uterine weight (in words) (compared to the ovariectomized animals or to EE2) | serum cholesterol (in words) (compared to the ovariectomized animals, EE2 orally at 0.1 mg/kg/day) | Serum Cholest. % Dec (ovariectomized rats, dose 0.1 mg/kg) | eosinophil infiltration into the uterus (in words) (stromal layer of the ovariectomized rat uteri) | Serum Cholest. % Dec [1] | Serum Cholest. % Dec [2]
C#C[C@]1(O)CC[C@H]2[C@@H]3CCc4cc(O)ccc4[C@H]3CC[C@@]21C [EE2, 17-α-ethynyl estradiol, reference compound] | 125.8* % | 111.2* |  |  |  |  | substantially greater than the uterine weight of the ovariectomized animals | caused a decrease in serum cholesterol | 88.1* % | substantial and expected increase in eosinophil infiltration |  | 
O=C(c1ccc(OCCCCN2CCCC2)cc1)c1c(-c2ccc(O)cc2)sc2cc(O)ccc12 [Example 14, [2-(4-Hydroxyphenyl)-6-hydroxybenzo[b]thien-3-yl][4-[4-(1-pyrrolidinyl)butyloxyl]phenyl]methanone] |  |  | 24.3* | 21.4* % | 66.5* | 62.0* % |  |  |  |  | 37.9* % | 65.7* %
O=C(c1ccc(OCCCN2CCCC2)cc1)c1c(-c2ccc(O)cc2)sc2cc(O)ccc12 [Example 15, [2-(4-Hydroxyphenyl)-6-hydroxybenzo[b]thien-3-yl][4-[3-(1-pyrrolidinyl)propyloxyl]phenyl]methanone] |  |  | 51.6* | 52.6* % | 137.3* | 58.2* % |  |  |  |  | 62.7* % | 64.0* %

Further lines, with some results ahead:

Uterine Weight % Inc (ovariectomized rats, dose 0.1 mg/kg, % increase versus the ovariectomized controls) | Uterine Eosinophil (Vmax) (ovariectomized rats, dose 0.1 mg/kg, Eosinophil peroxidase, Vmaximum) | Uterine Eosinophil (Vmax) (rat, in vivo, 1 mg/kg) | Uterine Weight % Inc (rat, in vivo, 1 mg/kg) | Uterine Eosinophil (Vmax) (rat, in vivo, 10 mg/kg) | Uterine Weight % Inc (rat, in vivo, 10 mg/kg) | SMILES | uterine weight (in words) (compared to the ovariectomized animals or to EE2) | serum cholesterol (in words) (compared to the ovariectomized animals, EE2 orally at 0.1 mg/kg/day) | Serum Cholest. % Dec (ovariectomized rats, dose 0.1 mg/kg) | eosinophil infiltration into the uterus (in words) (stromal layer of the ovariectomized rat uteri) | Serum Cholest. % Dec [1] | Serum Cholest. % Dec [2]
 |  | 5.9 | 9.3% | 59.2* | 64.0* % | O=C(c1ccc(OCCCCCCCN2CCCC2)cc1)c1c(-c2ccc(O)cc2)sc2cc(O)ccc12 [Example 11, [2-(4-Hydroxyphenyl)-6-hydroxybenzo[b]thien-3-yl][4-[7-(1-pyrrolidinyl)heptyloxyl]phenyl]methanone] |  |  |  |  | 32.4* % | 60.5* %
 |  | 2.6 | −2.6% | 17.2* | 47.8* % | O=C(c1ccc(OCCCCCCN2CCCC2)cc1)c1c(-c2ccc(O)cc2)sc2cc(O)ccc12 [Example 12, [2-(4-Hydroxyphenyl)-6-hydroxybenzo[b]thien-3-yl][4-[6-(1-pyrrolidinyl)hexyloxyl]phenyl]methanone] |  |  |  |  | 34.2* % | 74.0* %
 |  | 5.8 | 10.1% | 37.8* | 39.2* % | O=C(c1ccc(OCCCCCN2CCCC2)cc1)c1c(-c2ccc(O)cc2)sc2cc(O)ccc12 [Example 13, [2-(4-Hydroxyphenyl)-6-hydroxybenzo[b]thien-3-yl][4-[5-(1-pyrrolidinyl)pentyloxyl]phenyl]methanone] |  |  |  |  | 36.4* % | 52.9* %
 |  | 4.2 | 18.3* % | 40.3* | 69.3* % | O=C(c1ccc(OCCCCCCCCN2CCCC2)cc1)c1c(-c2ccc(O)cc2)sc2cc(O)ccc12 [Preparation C, [2-(4-Hydroxyphenyl)-6-hydroxybenzo[b]thien-3-yl][4-[8-(1-pyrrolidinyl)octyloxyl]phenyl]methanone] |  |  |  |  | 31.3* % | 72.8* %
